From patent US10456376B2, “Use of carbamate compound in order to preventatively treat headaches” (SK BIOPHARMACEUTICALS CO., LTD., priority 2016, dated 2019) come the findings set out here.

SMILES strings stand for the structures.

This experiment relates to cortical spreading depression (CSD) in rats. The experiment can be described thus: KCl-induced cortical spreading depression (CSD) animal model of migraine; cerebral blood flow and DC potential measurement. In kind it is in vivo, Wistar rats. The following applies: for number of DC-potential events: KCl-induced CSD (FIG. 3). How it is done: All animal experiments were conducted in accordance with the National Institutes of Health (NIH) guidelines for the protection and use of laboratory animals and were approved by the State National Animal Experiment Board of Finland. A total of 48 adult male Wistar rats weighing 250 to 350 g were purchased from Charles River (Germany) and used in this experiment. The animals were raised at ambient temperature (22±1° C.) under an environment in which food and water could be consumed arbitrarily and lighting was controlled (illuminated from 7 am to 8 pm). The animals were divided into the following four groups: • Twelve rats as a negative control group which were intraperitoneally administered 30% PEG400 (5 ml/kg) only, the vehicle of administration, once a day for three weeks • Twelve rats which were intraperitoneally administered the test compound at a dose of 10 mg/kg once a day for three weeks • Twelve rats which were intraperitoneally administered the test compound at a dose of 30 mg/kg once a day for three weeks • Twelve rats as a positive control which were intraperitoneally administered Topiramate at a dose of 80 mg/kg once a day for three weeks
On the last day of the three weeks of administration of the compound and the vehicle (30% PEG 400), the rats were anesthetized with 5% isoflurane (70% N2O and 30% O2 included, dose rate of 300 ml/min) and then were fixed to a stereotactic frame to perform the following surgery. During surgery, the concentration of anesthetic was reduced to 1 to 1.5%, and the rectal temperature was maintained at 37.0±1.0° C. using the homeothermic blanket system.
The skin of the rat head was incised and tilted to both sides, and the right hemisphere of the open skull was drilled using a drill to make three holes, the positions of which are as follows and are indicated by “mm” distance from the bregma; (1) in the occipital cortex, 4.5 at the rear and 2.0 at the lateral; (2) in the parietal cortex, 0.5 at the rear and 2.0 at the lateral; (3) in the frontal cortex, 2 at the front and 2 at the lateral. A laser-Doppler flow probe (Oxyflow, Oxford Optronics, UK) for monitoring the cerebral blood flow (CBF) and an invasive Ag/AgCl electrode for measuring the direct current (DC) potential change were placed on the uninjured dura of the holes drilled in the parietal and frontal cortex and within the cortex, respectively.
The laser-Doppler flow probes were placed in areas with no large pial and dural blood vessels to minimize the interference of the large vessels to the signal. For the measurement of the DC potential difference, a reference electrode was fixed to the neck. The dura on the occipital cortex was carefully removed and care was taken to minimize bleeding. After surgery, the cortical area was restored by washing with saline for 15 minutes. Sphere-shaped (2 mm diameter) cotton wool was wetted with 1 M KCl solution and placed on the pia, and 5 μl of KCl solution was added thereto every 15 minutes to prevent drying. The occurrence of KCl-induced cortical spreading depression (CSD) was measured for 2 hours.
Cerebral blood flow (CBF) and DC potential were continuously monitored starting 5 minutes before KCl treatment. The last drug administration took place 30 minutes before the KCl solution treatment. The parameters analyzed were (1) the number of events of DC potential, the duration of the event, the magnitude of amplitude, and (2) the number of events of cerebral blood flow change and the size of the magnitude of change. […] Statistical analysis was performed using unpaired t-test on StatsDirect statistical software.

For `CC1(C)O[C@@H]2[C@@H](CO[C@@]3(COS(N)(=O)=O)OC(C)(C)O[C@@H]23)O1` [Topiramate, reference compound], the “number of events of increased cerebral blood flow (CBF)” value (80 mg/kg i.p. once a day for three weeks, positive control, KCl-induced CSD (FIG. 1)) is recorded as “reduction effect”. Also, for the setting “80 mg/kg i.p. once a day for three weeks, positive control”, the “number of DC-potential events” value is “effect shown”.
`NC(=O)O[C@@H](Cn1ncnn1)c1ccccc1Cl` [test compound]: under “30 mg/kg i.p. once a day for three weeks, compared to vehicle treated group”, the “number of DC-potential events” value is “significantly reduced”. Moreover, the “number of events of increased cerebral blood flow (CBF)” value (30 mg/kg i.p. once a day for three weeks, compared to vehicle treated group, KCl-induced CSD measured for 2 hours (FIG. 1)) is reported as “significantly reduced”. Further, for the setting “i.p. once a day for three weeks, compared to vehicle, KCl-induced CSD (FIG. 2)”, the “degree of cerebral blood flow increase” value was “no significant effect”. Besides, the “magnitude of amplitude of the DC-potential event” value (i.p. once a day for three weeks, compared to vehicle, KCl-induced CSD (FIG. 4)) is on record as “no significant effect”. The “duration of the DC-potential event” value (i.p. once a day for three weeks, compared to vehicle, KCl-induced CSD (FIG. 5)) was “no significant effect”.
